Measurements: patent EP0395672B1, “ANTIVIRAL APPLICATION OF ALPHA OLIGONUCLEOTIDES” (CENTRE NATIONAL DE LA RECHERCHE SCIENTIFIQUE, priority 1987, dated 1989)

Key:
[1] = test system: L1210/0; experiment: inhibition of tumour cell proliferation; type: cell-based, murine; settings: Mus musculus, mean of at least two experiments, read-out: ID50 (dose d'inhibition du développement cellulaire de 50 %)
[2] = test system: L1210/BdUrd; experiment: inhibition of tumour cell proliferation; type: cell-based, murine; settings: Mus musculus; L1210/BdUrd (résistant à BdUrd); mean of at least two experiments; read-out: ID50 (dose d'inhibition du développement cellulaire de 50 %)
[3] = test system: CEM; experiment: inhibition of tumour cell proliferation; type: cell-based, humaine; settings: Homo sapiens, CCRF-CEM, mean of at least two experiments, read-out: ID50 (dose d'inhibition du développement cellulaire de 50 %)
[4] = test system: MT4; experiment: inhibition of tumour cell proliferation; type: cell-based, humaine; settings: Homo sapiens, mean of at least two experiments, read-out: ID50 (dose d'inhibition du développement cellulaire de 50 %)
[5] = test system: MOLT/4F; experiment: inhibition of tumour cell proliferation; type: cell-based, humaine; settings: Homo sapiens, mean of at least two experiments, read-out: ID50 (dose d'inhibition du développement cellulaire de 50 %)
[6] = target: T1, réverse transcriptase de HIV1 (Human immunodeficiency virus type 1 group M subtype B, UniProt P03366); experiment: inhibition of exogenous reverse transcription, poly(A) template with oligo(dT)12-18 primer (Example 2); type: biochemical
T1 construct: La réverse transcriptase de HIV1 ci-après abrégé RT a été partiellement purifiée; endogenous in cells; host or cells: HUT-78/HTLV-IIIb producer cell line; virus particles pelleted at 100,000 g and solubilised with Triton X-100
Excerpt: Dans les exemples qui vont suivre les α oligodésoxynucléotides α-dT, α-dT₂, α-dT₄, α-dT₆, α-dT₈, α-dT₁₀, α-dT₁₂, α-dT₁₄, α-dT₁₆ ont été dissous dans de l'eau stérilisée pour les essais de réverse transcriptase. Les concentrations ont été déterminées par spectrophotométrie (coefficient d'absorption molaire : 8880, 17760, 35520, 61800, 70000, 83300, 88800, 109800 et 138400, respectivement). Les α oligodésoxynucléotides α-dC₂₀ et α-dC₃₀ ont été dissous dans de l'eau distillée et les concentrations ont été déterminées également par spectrophotométrie (coefficient d'absorption molaire 178000 et 267000, respectivement). Les solutions étaient conservées à -20° C jusqu'à leur utilisation.
Les réactions de transcription inverse ont été effectuées avec des virus HIV dont partiellement purifiées. Les fluides de culture provenant d'une lignée cellulaire produisant un HUT-78/HTLV-IIIb ont été purifiés par centrifugation à basse vitesse. Des particules virales ont été sédimentées par centrifugation à 100.000 g pendant 30 minutes. Le Pellet viral a été incubé sur glace pendant 30 minutes avec un tampon de solubilisation contenant du triton X-100 0,1 % du dithiothréitol 1mM et du glycérol 50 % et conservé dans des aliquots à -70°C jusqu'à utilisation. Les effets inhibiteurs des α oligodésoxynucléotides contenant des bases thymine sur la réaction de transcription inverse ont été effectués avec une matrice polyrA exogène et un α oligodT₁₂₋₁₈ . Le mélange de réaction (50 µl) contenait du Tris-HCl 50 mM (pH 7,8), du dithiothréitol 5mM, du glutathione 300 µM, du EGTA 500 µM et du KCl 150 mM, du MgCl₂ 5 mM, et 1,25 µg de sérum albumine de bovin, et 1 µM de (méthyl-³H) dTTP (radioactivité spécifique 30 Ci/mmol.) (5 µCi), le mélange comportait également 4,4 µg/ml de polyrA, 7,5 µM d'oligodT et du triton X-100 0,03 %, et 10 µl de solution de composé,(contenant des concentrations variables des composés) et 10 µl de préparation de réverse transcriptase. Les effets inhibiteurs sur la transcription de HIV à l'aide de α-dC₂₀ et α-dC₃₀ ont été déterminés en utilisant une matrice exogène polyI (50 µg/ml) tandis que le mélange oligodC₁₂₋₁₈ servait d'amorce (0,44 U/ml). Le mélange de réaction avec le système polyI.oligodC contenait des réactifs décrits pour le système polyrA. oligodT mais les concentrations de MgCl et KCI ont été ajustées à 2,5 mM et […], respectivement, tandis que le dTTP trifié a été substitué par le (méthyl-³H)dCTP (radioactivité spécifique 19,5 Ci/mmol) (5 µCi). Les mélanges de réactions ont été incubés à 37°C pendant 0 à 60 minutes à quel moment 100 µl d'ADN de thymus de veau (150 µg/ml), 2 ml de Na₄P₂O₇ (0,1 M dans HCL 1 N) et 2 ml de TCA (10 % v/v) ont été ajoutés. Les solutions ont été gardées sur glace pendant au moins 30 minutes, après lesquelles la matière acide insoluble a été lavée et analysée quant à sa radioactivité.
La réverse transcriptase de HIV1 ci-après abrégé RT a été partiellement purifiée et les oligomères α ont été étudiés en fonction de leur faculté à servir d'amorce sur une matrice poly(A) dans une réaction de transcription inverse exogène.
Ces pourcentages ont été calculés de la même manière que précédemment par mesure de radioactivité, laquelle indique la quantité d'incorporation de méthyl ³H dTTP (valeurs en Cpm).

Structure (SMILES): Cc1cn([C@H]2C[C@H](O)[C@@H](CO)O2)c(=O)[nH]c1=O [β dThd, reference compound]
- IC50 [1]: 29 ± 1.9 µM
- IC50 [2]: > 500 µM
- IC50 [3]: 24.7 ± 3.42 µM
- IC50 [4]: 191 ± 7 µM
- IC50 [5]: > 500 µM

Structure (SMILES): Nc1nc2c(ncn2[C@H]2C[C@H](O)[C@@H](CO)O2)c(=O)[nH]1 [β dGuo, reference compound]
- IC50 [1]: 58.2 ± 10.9 µM
- IC50 [2]: 55.5 ± 6.8 µM
- IC50 [3]: 22.1 ± 0.6 µM
- IC50 [4]: 55.3 ± 5.3 µM
- IC50 [5]: 79.5 ± 9.2 µM

Structure (SMILES): Cc1cn([C@@H]2C[C@H](O)[C@@H](CO)O2)c(=O)[nH]c1=O [α-2'-dThd]
- IC50 [1]: > 500 µM
- IC50 [2]: > 500 µM
- IC50 [3]: > 500 µM
- IC50 [4]: > 500 µM
- IC50 [5]: > 500 µM

Structure (SMILES): Cc1cn([C@@H]2C[C@H](O)[C@@H](CO)O2)c(=O)[nH]c1=O [αdT]
- pourcentages d'inhibitions de la réaction exogène de transcription inverse ([6]; 0.16 uM oligomer, 7,5 μM oligo(dT)12-18 primer): 22%
- pourcentages d'inhibitions de la réaction exogène de transcription inverse ([6]; 0.8 uM oligomer, 7,5 μM oligo(dT)12-18 primer): 8%
- pourcentages d'inhibitions de la réaction exogène de transcription inverse ([6]; 4 uM oligomer, 7,5 μM oligo(dT)12-18 primer): 19%
- pourcentages d'inhibitions de la réaction exogène de transcription inverse ([6]; 20 uM oligomer, 7,5 μM oligo(dT)12-18 primer): 46%
- pourcentages d'inhibitions de la réaction exogène de transcription inverse ([6]; 100 uM oligomer, 7,5 μM oligo(dT)12-18 primer): 23%
- EC50 ([6]; 7,5 μM oligo(dT)12-18 primer, poly(A) template, read-out: ED50 (dose requise pour inhiber la réaction de transcription inverse de 50 %)): > 100 µM
- inhibition de la réaction de transcription inverse ([6]; result in words, in presence of primer βdT₁₂₋₁₈): aucune inhibition significative

Structure (SMILES): Nc1nc2c(ncn2[C@@H]2C[C@H](O)[C@@H](CO)O2)c(=O)[nH]1 [α-2'-dGuo]
- IC50 [1]: > 500 µM
- IC50 [2]: > 500 µM
- IC50 [3]: > 500 µM
- IC50 [4]: > 500 µM
- IC50 [5]: > 500 µM

Structure (SMILES): Nc1ccn([C@@H]2C[C@H](O)[C@@H](CO)O2)c(=O)n1 [α-2'-dC]
- IC50 [1]: > 500 µM
- IC50 [2]: > 500 µM
- IC50 [3]: > 500 µM
- IC50 [4]: > 500 µM
- IC50 [5]: > 500 µM

Structure (SMILES): Nc1ncnc2c1ncn2[C@@H]1C[C@H](O)[C@@H](CO)O1 [α-2'-dAdo]
- IC50 [1]: > 500 µM
- IC50 [2]: > 500 µM
- IC50 [3]: > 500 µM
- IC50 [4]: > 500 µM
- IC50 [5]: > 500 µM

Structure (SMILES): Nc1ncnc2c1ncn2[C@H]1C[C@H](O)[C@@H](CO)O1 [β dAdo, reference compound]
- IC50 [1]: > 500 µM
- IC50 [2]: > 500 µM
- IC50 [3]: 189 ± 19 µM
- IC50 [4]: > 500 µM
- IC50 [5]: > 500 µM
